This passage reports inhibition results from patent publication US4994485A, “Thio compounds having fungicidal activity” (Duphar International Research B.V., priority 1986, dated 1991).

The term inhibition denotes how much of the control response was suppressed.

One test concerns Leptosphaeria nodorum. The experiment in a line: In vitro test on activity against Leptosphaeria nodorum. To be noted: Parastagonospora nodorum, read-out: growth inhibition of the fungus. The class given is cell-based. The protocol:
The compound to be tested is processed in a culture medium consisting of 1% by weight of glucose, 0.2% by weight of a yeast extract (marmite), 0.5% by weight of a protein (pepton), 2.5% by weight of agar-agar, and 95.8% by weight of water, in petri dishes in concentrations of 3 and 10 ppm. The petri dishes are inoculated with the plant-pathogenic fungus Pyrenophora graminea and then kept at a temperature of 20° C. After 48 hours the growth-inhibiting activity of the compounds is determined visually. For comparison, the known substance (b) (see EXAMPLE XV) is also tested.
Compounds according to the invention are tested on i Leptosphaeria nodorum in the same manner as described in EXAMPLE XIX.
As to `CC[S+]([O-])c1sc(C(C)=O)c(NC)c1C#N` (stereo not drawn) [(17), 2-ethylsulphinyl-3-cyano-4-N-methylamino-5-acetylthiophene], the inhibition at 30 ppm is at least 85%.

Turning to `CC[S+]([O-])c1sc2cc(Cl)ccc2c1C#N` (stereo not drawn) [(20), 2-ethylsulphinyl-3-cyano 6-chloro-benzothiophene], the inhibition at 30 ppm is at least 85%.

As for `CC[S+]([O-])c1sc(C(C)=O)c(OC)c1C#N` (stereo not drawn) [(23), 2-ethylsulphinyl-3-cyano-4-methoxy-5-acetylthiophene], the inhibition at 30 ppm is at least 85%.

As to `CCOC(=O)c1sc([S+]([O-])CC)c(C#N)c1Cl` (stereo not drawn) [(37), 2-ethylsulphinyl 3-cyano-4-chloro-5-ethoxycarbonylthiophene], the inhibition at 30 ppm was at least 85%.

Consider `CCCC[S+]([O-])c1sc(C(C)=O)cc1C#N` (stereo not drawn) [(44), 2-n-butylsulphinyl-3-cyano-5-acetylthiophene], for which the inhibition at 30 ppm is at least 85%.

In the case of `CC[S+]([O-])c1sc(C#N)c(C)c1C#N` (stereo not drawn) [(63), 2-ethylsulphinyl-3,5-dicyano-4-methylthiophene], the inhibition at 30 ppm is at least 85%.

Turning to `CC[S+]([O-])c1sc(C(=O)c2ccccc2)cc1C#N` (stereo not drawn) [(64), 2-ethylsulphinyl-3-cyano-5-benzoylthiophene], the inhibition at 30 ppm is at least 85%.

`CC[S+]([O-])c1sc(C(=O)c2ccccc2)c(N)c1C#N` (stereo not drawn) [(65), 2-ethylsulphinyl-3-cyano-4-amino-5-benzoylthiophene]: the inhibition at 30 ppm is at least 85%.

With `CC[S+]([O-])c1sc(C#N)c(-c2ccccc2)c1C#N` (stereo not drawn) [(71), 2-ethylsulphinyl-3,5-dicyano-4-phenylthiophene], the inhibition at 30 ppm was at least 85%.

Regarding `CCC[S+]([O-])c1sc(C(=O)c2ccc(Cl)cc2)cc1C#N` (stereo not drawn) [(73), 2-n-propylsulphinyl-3-cyano-5-(4-chlorobenzolyl)thiophene], the inhibition at 30 ppm was at least 85%.

Turning to `CCC[S+]([O-])c1sc(C(=O)c2ccccc2)c(OC)c1C#N` (stereo not drawn) [(75), 2-n-propylsulphinyl-3-cyano-4-methoxy-5-benzoylthiophene], the inhibition at 30 ppm is at least 85%.

Consider `CC[S+]([O-])c1sc(C(=O)c2ccc(Cl)cc2)c(OC)c1C#N` (stereo not drawn) [(76), 2-ethylsulphinyl-3-cyano-4-methoxy-5-(4-chlorobenzoyl)thiophene], for which the inhibition at 30 ppm was at least 85%.

Regarding `CC[S+]([O-])c1sc(C(C)=O)c(-c2ccccc2)c1C#N` (stereo not drawn) [(87), 2-ethylsulphinyl-3-cyano-4-phenyl-5-acetylthiophene], the inhibition at 30 ppm was at least 85%.

For the molecule `CCCC[S+]([O-])c1sc(C(=O)c2ccccc2)c(N)c1C#N` (stereo not drawn) [(88), 2-n-butylsulphinyl-3-cyano-4-amino-5-benzoylthiophene], the inhibition at 30 ppm is at least 85%.

For the next test, the system named is Pythium splendens. The experiment in a line: In vitro test on activity against Pythium splendens. The test is classed as cell-based. To be noted: Globisporangium splendens, read-out: growth inhibition of the fungus.
Take `CCS(=O)(=O)c1sc(C#N)cc1C#N` [(16), 2-ethylsulphonyl-3,5-dicyanothiophene]: the inhibition at 10 ppm is at least 95%.

Regarding `CC[S+]([O-])c1sc(C(C)=O)c(NC)c1C#N` (stereo not drawn) [(17), 2-ethylsulphinyl-3-cyano-4-N-methylamino-5-acetylthiophene], the inhibition at 10 ppm was at least 95%.

Regarding `CCS(=O)(=O)c1sc(C(C)=O)c(Cl)c1C#N` [(18), 2-ethylsulphonyl-3-cyano-4-chloro-5-acetylthiophene], the inhibition at 10 ppm is at least 95%.

Consider `CCS(=O)(=O)c1sc(C(C)=O)cc1C#N` [(21), 2-ethylsulphonyl-3-cyano-5-acetylthiophene], for which the inhibition at 10 ppm was at least 95%.

For the molecule `CCS(=O)(=O)c1sc(C#N)c(Cl)c1C#N` [(22), 2-ethylsulphonyl-3,5 dicyano-4-chlorothiophene], the inhibition at 10 ppm was at least 95%.

Consider `COc1c(C(C)=O)sc([S+](C)[O-])c1C#N` (stereo not drawn) [(25), 2-methylsulphinyl-3-cyano-4-methoxy-5-acetylthiophene], for which the inhibition at 10 ppm was at least 95%.

Regarding `C[S+]([O-])c1sc(C=O)c(-c2ccc(Cl)cc2)c1C#N` (stereo not drawn) [(26), 2-methylsulphinyl-3-cyano-4-(4-chlorophenyl)-5-formylthiophene], the inhibition at 10 ppm was at least 95%.

For the molecule `C[S+]([O-])c1sc(C=O)cc1C#N` (stereo not drawn) [(28), 2-methylsulphinyl-3-cyano-5-formylthiophene], the inhibition at 10 ppm is at least 95%.

`C[S+]([O-])c1sc(C(=O)c2ccccc2)cc1C#N` (stereo not drawn) [(30)]: the inhibition at 10 ppm is at least 95%.

`CC[S+]([O-])c1sc(C#N)c(N)c1C#N` (stereo not drawn) [(46), 2-ethylsulphinyl-3,5-dicyano-4-aminothiophene]: the inhibition at 10 ppm was at least 95%.

On to `C[S+]([O-])c1sc(C=O)c(N)c1C#N` (stereo not drawn) [(48), 2-methylsulphinyl-3-cyano-4-amino-5-formylthiophene], for which the inhibition at 10 ppm was at least 95%.

As for `CC[S+]([O-])c1sc(C=O)c(N)c1C#N` (stereo not drawn) [(49), 2-ethylsulphinyl-3-cyano-4-amino-5-formylthiophene], the inhibition at 10 ppm was at least 95%.

For the molecule `CC[S+]([O-])c1sc(C=O)c(Cl)c1C#N` (stereo not drawn) [(50), 2-ethylsulphinyl-3-cyano-4-chloro-5-formylthiophene], the inhibition at 10 ppm was at least 95%.

Take `CC[S+]([O-])c1sc(C#N)c(N(C)C(C)=O)c1C#N` (stereo not drawn) [(54), 2-ethylsulphinyl-3,5-dicyano-4-(N-acetyl-N-methylamino)thiophene]: the inhibition at 10 ppm was at least 95%.

For `CCC[S+]([O-])c1sc(C#N)c(OC)c1C#N` (stereo not drawn) [(55), 2-n-propylsulphinyl-3,5-dicyano-4-methoxythiophene], the inhibition at 10 ppm was at least 95%.

For the molecule `CC[S+]([O-])c1sc(C=O)c(C)c1C#N` (stereo not drawn) [(56), 2-ethylsulphinyl-3-cyano-4-methyl-5-formylthiophene], the inhibition at 10 ppm was at least 95%.

In the case of `CCC[S+]([O-])c1sc(C(C)=O)c(N)c1C#N` (stereo not drawn) [(57), 2-n-propylsulphinyl-3-cyano-4-amino-5-acetylthiophene], the inhibition at 10 ppm was at least 95%.

Turning to `CC(=O)COc1c(C(C)=O)sc([S+](C)[O-])c1C#N` (stereo not drawn) [(59), 2-methylsulphinyl-3-cyano-4-acetylmethoxy-5-acetylthiophene], the inhibition at 10 ppm is at least 95%.

As to `C[S+]([O-])c1sc(S(C)(=O)=O)cc1C#N` (stereo not drawn) [(60), 2-methylsulphinyl-3-cyano-5-methylsulphonylthiophene], the inhibition at 10 ppm is at least 95%.

For the molecule `CCC[S+]([O-])c1sc(C(C)=O)c(Cl)c1C#N` (stereo not drawn) [(61), 2-n-propylsulphinyl-3-cyano-4-cloro-5-acetylthiophene], the inhibition at 10 ppm is at least 95%.

Consider `CC[S+]([O-])c1sc(C#N)c(-n2cncn2)c1C#N` (stereo not drawn) [(68), 2-ethylsulphinyl-3,5-dicyano-4-(1,2,4-triazol-1-yl)thiophene], for which the inhibition at 10 ppm is at least 95%.

In the case of `CC[S+]([O-])c1sc(C#N)c(-n2ccnc2)c1C#N` (stereo not drawn) [(69), 2-ethylsulphinyl-3,5-dicyano-4-(imidazol-1-yl)thiophene], the inhibition at 10 ppm was at least 95%.

On to `C[S+]([O-])c1sc(C=O)cc1C=O` (stereo not drawn) [(70), 2-methylsulphinyl-3,5-diformylthiophene], for which the inhibition at 10 ppm is at least 95%.

For `CC[S+]([O-])c1sc(S(C)(=O)=O)c(Cl)c1C#N` (stereo not drawn) [(77), 2-ethylsulphinyl-3-cyano-4-chloro-5-methylsulphonyl-thiophene], the inhibition at 10 ppm was at least 95%.

With `CC[S+]([O-])c1sc(C=O)c(Cl)c1C=O` (stereo not drawn) [(83), 2-ethylsulphinyl-3,5-diformyl-4-chlorothiophene], the inhibition at 10 ppm was at least 95%.

As for `CCS(=O)(=O)c1sc(S(C)(=O)=O)c(Cl)c1C#N` [(84), 2-ethylsulphonyl-3-cyano-4-chloro-5-methylsulphonylthiophene], the inhibition at 10 ppm is at least 95%.

With `CS/C(=C(\C#N)c1ccccc1)[S+](C)[O-]` (stereo not drawn) [(93), α-cyano-β-methylsulphinyl)-β-methylthio-styrene, E-isomer], the inhibition at 10 ppm is at least 95%.

For a further test, the system named is Fusarium culmorum. The experiment in a line: In vitro test on activity against Fusarium culmorum. The class given is cell-based. To be noted: read-out: growth inhibition of the fungus.
For the molecule `C[S+]([O-])c1sc2cccc(Cl)c2c1C#N` (stereo not drawn) [(11), 2-methylsulphinyl-3-cyano-4-chloro-benzothiophene], the inhibition at 30 ppm was at least 75%.

As for `CCS(=O)(=O)c1sc(C#N)c(Cl)c1C#N` [(22), 2-ethylsulphonyl-3,5 dicyano-4-chlorothiophene], the inhibition at 30 ppm is at least 75%.

In the case of `CC[S+]([O-])c1sc(C(C)=O)c(OC)c1C#N` (stereo not drawn) [(23), 2-ethylsulphinyl-3-cyano-4-methoxy-5-acetylthiophene], the inhibition at 30 ppm was at least 75%.

As to `CCOC(=O)c1sc([S+](C)[O-])c(C#N)c1N` (stereo not drawn) [(29), 2-methylsulphinyl-3-cyano-4-amino-5-ethoxycarbonylthiophene], the inhibition at 30 ppm was at least 75%.

For `CCOC(=O)c1sc([S+]([O-])CC)c(C#N)c1Cl` (stereo not drawn) [(37), 2-ethylsulphinyl 3-cyano-4-chloro-5-ethoxycarbonylthiophene], the inhibition at 30 ppm is at least 75%.

On to `CCCCCC[S+]([O-])c1sc(C#N)c(N)c1C#N` (stereo not drawn) [(38), 2-n-hexylsulphinyl-3,5-dicyano-4-aminothiophene], for which the inhibition at 30 ppm was at least 75%.

For `CCCC[S+]([O-])c1sc(C(C)=O)cc1C#N` (stereo not drawn) [(44), 2-n-butylsulphinyl-3-cyano-5-acetylthiophene], the inhibition at 30 ppm was at least 75%.

Turning to `CCC[S+]([O-])c1sc(C#N)c(OC)c1C#N` (stereo not drawn) [(55), 2-n-propylsulphinyl-3,5-dicyano-4-methoxythiophene], the inhibition at 30 ppm was at least 75%.

For the molecule `CCC[S+]([O-])c1sc(C(C)=O)c(N)c1C#N` (stereo not drawn) [(57), 2-n-propylsulphinyl-3-cyano-4-amino-5-acetylthiophene], the inhibition at 30 ppm is at least 75%.

Take `CCC[S+]([O-])c1sc(C(C)=O)c(Cl)c1C#N` (stereo not drawn) [(61), 2-n-propylsulphinyl-3-cyano-4-cloro-5-acetylthiophene]: the inhibition at 30 ppm was at least 75%.

For `CCC[S+]([O-])c1sc(C(C)=O)c(C)c1C#N` (stereo not drawn) [(62), 2-n-propylsulphinyl-3-cyano-4-methyl-5-acetylthiophene], the inhibition at 30 ppm is at least 75%.

Turning to `CC[S+]([O-])c1sc(C(=O)c2ccccc2)cc1C#N` (stereo not drawn) [(64), 2-ethylsulphinyl-3-cyano-5-benzoylthiophene], the inhibition at 30 ppm was at least 75%.

Consider `CC[S+]([O-])c1sc(C(=O)c2ccccc2)c(N)c1C#N` (stereo not drawn) [(65), 2-ethylsulphinyl-3-cyano-4-amino-5-benzoylthiophene], for which the inhibition at 30 ppm is at least 75%.

For `CC[S+]([O-])c1sc(C#N)c(-c2ccccc2)c1C#N` (stereo not drawn) [(71), 2-ethylsulphinyl-3,5-dicyano-4-phenylthiophene], the inhibition at 30 ppm is at least 75%.

For `CCC[S+]([O-])c1sc(C(=O)c2ccc(Cl)cc2)cc1C#N` (stereo not drawn) [(73), 2-n-propylsulphinyl-3-cyano-5-(4-chlorobenzolyl)thiophene], the inhibition at 30 ppm is at least 75%.

Take `CCC[S+]([O-])c1sc(C(=O)c2ccccc2)c(OC)c1C#N` (stereo not drawn) [(75), 2-n-propylsulphinyl-3-cyano-4-methoxy-5-benzoylthiophene]: the inhibition at 30 ppm is at least 75%.

Turning to `CCCCCCCC[S+]([O-])c1sc(C#N)cc1C#N` (stereo not drawn) [(81), 2-n-octylsulphinyl-3,5-dicyanothiophene], the inhibition at 30 ppm was at least 75%.

Regarding `CC[S+]([O-])c1sc(C(C)=O)c(-c2ccccc2)c1C#N` (stereo not drawn) [(87), 2-ethylsulphinyl-3-cyano-4-phenyl-5-acetylthiophene], the inhibition at 30 ppm is at least 75%.

For the molecule `CCCC[S+]([O-])c1sc(C(=O)c2ccccc2)c(N)c1C#N` (stereo not drawn) [(88), 2-n-butylsulphinyl-3-cyano-4-amino-5-benzoylthiophene], the inhibition at 30 ppm is at least 75%.

Take `CCCC[S+]([O-])c1sc(C(=O)c2ccccc2)cc1C#N` (stereo not drawn) [(90), 2-n-butylsulphinyl 3-cyano-5-benzoylthiophene]: the inhibition at 30 ppm is at least 75%.

Take `CC[S+]([O-])c1sc(C(=O)c2ccccc2)c(C)c1C#N` (stereo not drawn) [(91), 2-ethylsulphinyl-3-cyano-4-methyl-5-benzoylthiophene]: the inhibition at 30 ppm was at least 75%.

Regarding `CS/C(=C(\C#N)c1ccccc1)[S+](C)[O-]` (stereo not drawn) [(93), α-cyano-β-methylsulphinyl)-β-methylthio-styrene, E-isomer], the inhibition at 30 ppm is at least 75%.
